Source: patent US20090258949A1, “AMORPHOUS FORM OF CINACALCET” (priority 2006, published 2009)
Where a name gives a salt, the structure may show the parent alone.

Experiment: Stress stability of amorphous Cinacalcet Hydrochloride, assay by HPLC
Type: physicochemical
Details: stressed in a closed vial at 60° C. for 24 hours
Experimental: A sample of amorphous Cinacalcet Hydrochloride from Example 1 was stressed in a closed vial at 60° C. for 24 hours. […] Vol 7 μm; temperature 40° C. sample preparation: approximately 10 mg of sample dissolved in 25 ml of eluent B gradient: [table] Area %/mg of starting material and stressed sample were compared

- decrease in assay measured by HPLC (area %/mg of starting material and stressed sample compared): No decrease in assay
Compound: C[C@@H](NCCCc1cccc(C(F)(F)F)c1)c1cccc2ccccc12 [N-[1-(R)-(−)-(1-naphthyl)ethyl]-3-[3-(trifluoromethyl)phenyl]-1-aminopropane hydrochloride]
